Consider 31 compounds from US9326513B2, “Fungicidal compositions” (Syngenta Participations AG, priority 2011, dated 2016).

Test [1] relates to Monographella nivalis (syn. Microdochium nivale, Fusarium nivale). The test can be described thus: Monographella nivalis (snow mould, foot rot of cereals), PDB microtiter plate, visual after 72 hrs. The class given is cell-based. The settings on record: applied alone.
For test [2], the system named is Botrytis cinerea. Put plainly: Botrytis cinerea (gray mould), PDB microtiter plate, visual after 72 hrs. It is filed as cell-based. The note with it: for inhibition at 1.25 ppm: rate 1.25 ppm.
Test [3] has as its system Pyrenophora teres. Put plainly: Pyrenophora teres / barley / leaf disc preventative (net blotch). The class given is in vivo. The note with it: foliar, compared to untreated control leaf disks, read-out: disease control. From the text:
Pyrenophora teres/Barley/Leaf Disc Preventative (Net Blotch) Barley leaf segments cv. Hasso were placed on agar in a multiwell plate (24-well format) and sprayed with the formulated test compound diluted in water. The leaf segments were inoculated with a spore suspension of the fungus 2 days after application.

Test [4] concerns Puccinia recondita f. sp. tritici. Put plainly: Puccinia recondita f. sp. tritici / wheat / leaf disc preventative (brown rust). The note with it: foliar, compared to untreated control leaf disks, read-out: disease control. The class given is in vivo. The text has this: Puccinia recondita f. sp. tritici/Wheat/Leaf Disc Preventative (Brown Rust) Wheat leaf segments cv. Kanzler were placed on agar in multiwell plates (24-well format) and sprayed with the formulated test compound diluted in water. The leaf disks were inoculated with a spore suspension of the fungus 1 day after application.

Test [5] relates to Blumeria graminis f. sp. tritici (Erysiphe graminis f. sp. tritici). The test can be described thus: Blumeria graminis f. sp. tritici / wheat / leaf disc preventative (powdery mildew on wheat). The settings on record: foliar, compared to untreated control leaf disks, read-out: disease control. The class given is in vivo. The method, boiled down:
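Wheat leaf segments (cv. Kanzler) on agar were sprayed with formulated compound in water, inoculated with powdery mildew 1 day later, and kept at 20° C, 60% rh (24 h dark, then 12 h light/12 h dark). Percent disease control versus untreated scored 6-8 days after application; tested at 200 ppm.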

In test [6] the test system is Puccinia recondita f. sp. tritici. The test can be described thus: Puccinia recondita f. sp. tritici / wheat / leaf disc curative (brown rust). It is filed as in vivo. The settings on record: foliar, compared to untreated control leaf disks, read-out: disease control. The protocol:
Puccinia recondita f. sp. tritici/Wheat/Leaf Disc Curative (Brown Rust) Wheat leaf segments cv. Kanzler are placed on agar in multiwell plates (24-well format). The leaf segments are inoculated with a spore suspension of the fungus. Plates were stored in darkness at 19° C. and 75% rh. The formulated test compound diluted in water was applied 1 day after inoculation.

Compound `COC(=O)Nc1nc2ccccc2[nH]1` [Carbendazim] came in with an inhibition at 0.015625 ppm in test [1] (Monographella nivalis, rate 0.015625 ppm) of 0%. In addition, the inhibition at 0.03125 ppm in test [1] (Monographella nivalis, rate 0.03125 ppm) is 0%. Besides, the inhibition at 0.0625 ppm in test [1] (Monographella nivalis, rate 0.0625 ppm) was found to be 0%.
As to `N#Cc1c(Cl)c(Cl)c(Cl)c(C#N)c1Cl` [Chlorotalonil], the “Activity (%)” value was 0% in test [2] (alone, rate 0.0625 ppm); 0% in test [2] (alone, rate 0.125 ppm); 20% in test [2] (alone, rate 0.25 ppm).
Regarding `N#Cc1c(Cl)c(Cl)c(Cl)c(C#N)c1Cl` [Chlorothalonil], in test [1] (Monographella nivalis, 0.03125 ppm), the inhibition at 0.03125 ppm is 0%. The compound also showed an inhibition at 0.0625 ppm in test [1] (Monographella nivalis, 0.0625 ppm) of 20%. In addition, in test [1] (Monographella nivalis, 0.125 ppm), the inhibition at 0.125 ppm was 70%.
Consider `[Mn+2].[O-2]` [Manganese oxide], for which the “Activity (%)” value in test [1] (rate 0.15625 ppm), in test [1] (rate 0.3125 ppm), in test [1] (rate 0.625 ppm), in test [1] (rate 1.25 ppm) and in test [1] (rate 2.5 ppm) was 0% in each case.
Take `CC12CC1(C)C(=O)N(c1cc(Cl)cc(Cl)c1)C2=O` (stereo not drawn) [Procymidone]: the inhibition at 1.25 ppm amounted to 0% in test [2] (Botrytis cinerea, alone) and 0% in test [2] (Botrytis cinerea, single compound). In addition, in test [2] (Botrytis cinerea, alone, rate 2.5 ppm, read-out: Activity (%)), the inhibition at 2.5 ppm is 50%. For the same compound, the inhibition at 0.3125 ppm in test [2] (Botrytis cinerea, single compound, rate 0.3125 ppm) turned out to be 0%. In test [2] (Botrytis cinerea, single compound, rate 0.625 ppm), this compound gave an inhibition at 0.625 ppm of 0%.
With `CCCc1cccc(COc2nc(C)c(/N=C/N(C)CC)cc2Br)c1` [Q.346], the pest or weed control at 200 ppm in test [3], in test [4], in test [5] and in test [6] was no less than 50% throughout.
For the compound `CCN(C)/C=N/c1cc(Br)c(OCCc2ccccc2C)nc1C` [Q.349], the pest or weed control at 200 ppm in test [3], in test [4], in test [5] and in test [6] was no less than 50% throughout.
Consider `Cc1ccccc1CCOc1ccc(/N=C/N(C)C(C)C)c(C)n1` [Q.352], for which the pest or weed control at 200 ppm in test [3], in test [4], in test [5] and in test [6] was no less than 50% throughout.
As for `CCN(C)/C=N/c1cc(Br)c(OC(C)Cc2ccccc2C)nc1C` (stereo not drawn) [Q.353], the pest or weed control at 200 ppm in test [3], in test [4], in test [5] and in test [6] was no less than 50% in each case.
On to `CCN(C)/C=N/c1ccc(OC(C)Cc2ccccc2C)nc1C` (stereo not drawn) [Q.354], for which the pest or weed control at 200 ppm in test [3], in test [4], in test [5] and in test [6] was no less than 50% each time.
As to `Cc1ccccc1CC(C)Oc1ccc(/N=C/N(C)C(C)C)c(C)n1` (stereo not drawn) [Q.355], the pest or weed control at 200 ppm in test [3], in test [4], in test [5] and in test [6] was no less than 50% throughout.
Regarding `CCN(C)/C=N/c1cc(Br)c(OC(C)CCC2CC2)nc1C` (stereo not drawn) [Q.357], the pest or weed control at 200 ppm in test [3], in test [4], in test [5] and in test [6] was no less than 50% each time.
Turning to `CCN(C)/C=N/c1ccc(OC(C)c2cc(C)cc(C)c2)nc1C` (stereo not drawn) [Q.358], the pest or weed control at 200 ppm in test [3], in test [4], in test [5] and in test [6] was no less than 50% each time.
For the compound `CCC(Oc1ccc(/N=C/N(C)C(C)C)c(C)n1)c1cc(C)cc(C)c1` (stereo not drawn) [Q.361], the pest or weed control at 200 ppm in test [3], in test [4], in test [5] and in test [6] was no less than 50% throughout.
Consider `CCN(C)/C=N/c1cc(Br)c(OCCc2ccc(C)cc2)nc1C` [Q.364], for which the pest or weed control at 200 ppm in test [3], in test [4], in test [5] and in test [6] was no less than 50% throughout.
For the compound `CCN(C)/C=N/c1cc(Br)c(OCc2cc(OC)cc(OC)c2)nc1C` [Q.370], the pest or weed control at 200 ppm in test [3], in test [4], in test [5] and in test [6] was no less than 50% throughout.
For `CCN(C)/C=N/c1cc(Br)c(OC2CCC(F)(F)CC2)nc1C` [Q.375], the pest or weed control at 200 ppm in test [3], in test [4], in test [5] and in test [6] was no less than 50% each time.
As for `CCN(C)/C=N/c1cc(Br)c(OC2Cc3ccc(C#N)cc3C2)nc1C` (stereo not drawn) [Q.376], the pest or weed control at 200 ppm in test [3], in test [4], in test [5] and in test [6] was no less than 50% throughout.
On to `CCN(C)/C=N/c1cc(Br)c(OC2Cc3cc(Cl)c(OC)cc3C2)nc1C` (stereo not drawn) [Q.378], for which the pest or weed control at 200 ppm in test [3], in test [4], in test [5] and in test [6] was no less than 50% each time.
`CCN(C)/C=N/c1ccc(O[C@H]2CC[C@H](CC)CC2)nc1C` [Q.380]: the pest or weed control at 200 ppm in test [3], in test [4], in test [5] and in test [6] was no less than 50% in each case.
Consider `CCN(C)/C=N/c1cc(Br)c(OC2CC(C)C(C)C2)nc1C` (stereo not drawn) [Q.382], for which the pest or weed control at 200 ppm in test [3], in test [4], in test [5] and in test [6] was no less than 50% in each case.
Regarding `CCN(C)/C=N/c1cc(I)c(OCc2ccccc2C)nc1C` [Q.386], the pest or weed control at 200 ppm in test [3], in test [4], in test [5] and in test [6] was no less than 50% in each case.
As for `CCC(C)Oc1nc(C)c(/N=C/N(C)CC)cc1Br` (stereo not drawn) [Q.389], the pest or weed control at 200 ppm in test [3], in test [4], in test [5] and in test [6] was no less than 50% in each case.
`CCCCOc1nc(C)c(/N=C/N(C)CC)cc1Br` [Q.390]: the pest or weed control at 200 ppm in test [3], in test [4], in test [5] and in test [6] was no less than 50% in each case.
For the compound `CCN(C)/C=N/c1cc(Br)c(OCCC(C)C)nc1C` [Q.391], the pest or weed control at 200 ppm in test [3], in test [4], in test [5] and in test [6] was no less than 50% throughout.
Regarding `CCN(C)/C=N/c1cc(Br)c(OC(C)CC(C)C)nc1C` (stereo not drawn) [Q.392], the pest or weed control at 200 ppm in test [3], in test [4], in test [5] and in test [6] was no less than 50% each time.
As for `C=CCOc1nc(C)c(/N=C/N(C)CC)cc1Br` [Q.393], the pest or weed control at 200 ppm in test [3], in test [4], in test [5] and in test [6] was no less than 50% each time.
As to `C=CC(C)Oc1nc(C)c(/N=C/N(C)CC)cc1Br` (stereo not drawn) [Q.394], the pest or weed control at 200 ppm in test [3], in test [4], in test [5] and in test [6] was no less than 50% each time.
Consider `CCc1nc(OCc2ccccc2C)c(Br)cc1/N=C/N(C)CC` [Q.398], for which the pest or weed control at 200 ppm in test [3], in test [4], in test [5] and in test [6] was no less than 50% each time.
Turning to `C=C(C)c1nc(OCc2ccccc2C)c(Br)cc1/N=C/N(C)CC` [Q.400], the pest or weed control at 200 ppm in test [3], in test [4], in test [5] and in test [6] was no less than 50% in each case.
Consider `CON=C(C(=O)OC)c1ccccc1CON=C(C)c1cccc(C(F)(F)F)c1` [Trifloxystrobin], for which the inhibition at 0.0125 ppm in test [2] (Botrytis cinerea, alone, rate 0.0125 ppm) is 0%. In addition, the inhibition at 0.025 ppm in test [2] (Botrytis cinerea, alone, rate 0.025 ppm) was 20%. The inhibition at 0.05 ppm in test [2] (Botrytis cinerea, alone, rate 0.05 ppm) worked out at 50%. Further, in test [2] (Botrytis cinerea, alone, rate 0.1 ppm), the inhibition at 0.1 ppm was found to be 50%. The compound also gave an inhibition at 0.5 ppm in test [2] (Botrytis cinerea, alone, rate 0.5 ppm) of 50%. For the same compound, in test [2] (Botrytis cinerea, alone, rate 1 ppm), the inhibition at 1 ppm came to 50%. The inhibition at 2 ppm in test [2] (Botrytis cinerea, alone, rate 2 ppm) was 50%.
